What was measured:
[1] = molecular target: T1, Endothelin receptor type B (Sus scrofa, UniProt P35463); assay: Inhibitory activity measured against Endothelin B receptor binding to porcine cerebellum; format: tissue-based
T1 sequence (P35463 whole entry): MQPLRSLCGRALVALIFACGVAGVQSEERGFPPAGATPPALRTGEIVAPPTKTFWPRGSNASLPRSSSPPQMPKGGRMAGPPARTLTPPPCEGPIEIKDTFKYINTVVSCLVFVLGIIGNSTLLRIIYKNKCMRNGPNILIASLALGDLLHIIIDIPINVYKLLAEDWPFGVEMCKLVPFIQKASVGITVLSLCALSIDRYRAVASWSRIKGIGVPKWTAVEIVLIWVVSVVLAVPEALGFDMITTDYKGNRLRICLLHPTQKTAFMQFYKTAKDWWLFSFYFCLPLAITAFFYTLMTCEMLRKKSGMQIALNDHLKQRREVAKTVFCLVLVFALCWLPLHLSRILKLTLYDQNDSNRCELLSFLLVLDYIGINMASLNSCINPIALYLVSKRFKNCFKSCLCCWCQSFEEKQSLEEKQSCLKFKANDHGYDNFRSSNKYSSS

[2] = molecular target: T2, Endothelin receptor type B (Homo sapiens, UniProt P24530); assay: Radioligand binding selectivity to human Endothelin B receptor in chinese hamster ovary cells; format: cell-based, CHO
T2 sequence (P24530 whole entry): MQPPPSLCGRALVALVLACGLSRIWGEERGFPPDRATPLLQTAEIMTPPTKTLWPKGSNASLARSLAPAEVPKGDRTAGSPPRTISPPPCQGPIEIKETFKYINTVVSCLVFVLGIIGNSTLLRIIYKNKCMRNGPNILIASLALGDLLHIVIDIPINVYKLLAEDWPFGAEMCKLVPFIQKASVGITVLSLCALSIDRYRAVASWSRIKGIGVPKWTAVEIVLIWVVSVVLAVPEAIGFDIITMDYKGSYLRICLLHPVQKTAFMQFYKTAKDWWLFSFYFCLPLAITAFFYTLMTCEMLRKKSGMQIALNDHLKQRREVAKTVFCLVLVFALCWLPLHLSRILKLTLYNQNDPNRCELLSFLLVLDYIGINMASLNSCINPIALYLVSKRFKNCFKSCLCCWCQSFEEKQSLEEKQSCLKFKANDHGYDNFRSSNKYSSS

Endothelin-1 receptor [3] = molecular target: T3, Endothelin-1 receptor (Rattus norvegicus, UniProt P26684); assay: Inhibitory activity against the Endothelin A receptor of rat MMQ cells; format: cell-based
T3 sequence (P26684 whole entry): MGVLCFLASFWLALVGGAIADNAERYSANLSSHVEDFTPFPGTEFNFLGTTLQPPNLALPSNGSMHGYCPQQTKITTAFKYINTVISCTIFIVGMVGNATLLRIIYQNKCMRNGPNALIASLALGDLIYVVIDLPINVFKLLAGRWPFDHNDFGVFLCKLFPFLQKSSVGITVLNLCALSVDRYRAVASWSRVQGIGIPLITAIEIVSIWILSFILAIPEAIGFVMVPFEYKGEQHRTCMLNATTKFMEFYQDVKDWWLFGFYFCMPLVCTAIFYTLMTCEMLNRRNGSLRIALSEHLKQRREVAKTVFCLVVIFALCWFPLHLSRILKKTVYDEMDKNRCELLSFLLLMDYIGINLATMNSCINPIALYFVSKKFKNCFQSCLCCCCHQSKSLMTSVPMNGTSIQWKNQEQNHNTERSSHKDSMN

Endothelin-1 receptor [4] = molecular target: T4, Endothelin-1 receptor (Homo sapiens, UniProt P25101); assay: Radioligand binding selectivity to human Endothelin A receptor in chinese hamster ovary cells; format: cell-based, CHO
T4 sequence (P25101 whole entry): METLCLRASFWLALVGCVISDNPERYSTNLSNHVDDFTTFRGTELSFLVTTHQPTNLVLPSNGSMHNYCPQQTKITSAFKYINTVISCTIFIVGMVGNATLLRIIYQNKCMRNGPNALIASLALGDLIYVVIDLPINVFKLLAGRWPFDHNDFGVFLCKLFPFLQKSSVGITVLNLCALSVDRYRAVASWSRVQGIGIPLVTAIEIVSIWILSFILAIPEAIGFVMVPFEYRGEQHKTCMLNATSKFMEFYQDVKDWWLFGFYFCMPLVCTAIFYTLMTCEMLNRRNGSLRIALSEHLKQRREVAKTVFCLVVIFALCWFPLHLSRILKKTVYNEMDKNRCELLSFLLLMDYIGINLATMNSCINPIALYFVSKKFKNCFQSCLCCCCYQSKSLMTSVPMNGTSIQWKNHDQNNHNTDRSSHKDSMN

Endothelin receptor = molecular target: T5, Endothelin receptor (Rattus norvegicus, UniProt P26684+P21451); assay: Inhibition of phosphoinositol hydrolysis of MMQ cells.; format: functional, cell-based
T5 sequence (P26684 whole entry): T3 sequence (P26684 whole entry)
T5 sequence (P21451 whole entry): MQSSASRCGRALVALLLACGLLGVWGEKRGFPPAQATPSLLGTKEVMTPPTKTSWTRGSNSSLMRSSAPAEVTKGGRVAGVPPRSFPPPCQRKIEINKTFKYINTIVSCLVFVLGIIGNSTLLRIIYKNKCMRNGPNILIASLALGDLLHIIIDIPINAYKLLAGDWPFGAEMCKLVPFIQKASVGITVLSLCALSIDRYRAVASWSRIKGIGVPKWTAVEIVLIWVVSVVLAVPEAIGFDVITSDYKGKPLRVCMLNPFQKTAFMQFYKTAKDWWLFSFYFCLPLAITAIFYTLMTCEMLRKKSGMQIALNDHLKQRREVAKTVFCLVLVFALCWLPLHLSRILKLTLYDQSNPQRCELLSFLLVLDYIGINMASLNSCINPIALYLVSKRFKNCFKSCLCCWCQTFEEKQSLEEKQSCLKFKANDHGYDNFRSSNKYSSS

[5] = molecular target: T1, Endothelin receptor type B; assay: Inhibitory activity was measured against Endothelin B receptor binding to porcine cerebellum; inactive; format: tissue-based
[6] = molecular target: T2, Endothelin receptor type B; assay: Inhibitory activity against human Endothelin B receptor in chinese hamster ovary cells; format: cell-based, CHO
Endothelin-1 receptor [7] = molecular target: T4, Endothelin-1 receptor; assay: Inhibitory activity against human Endothelin A receptor in chinese hamster ovary cells; format: cell-based, CHO

| SMILES | IC50 [1] [nM] | IC50 [2] [nM] | IC50 (Endothelin-1 receptor [3]) [nM] | IC50 (Endothelin-1 receptor [4]) [nM] | IC50 (Endothelin receptor) [nM] | IC50 [5] | Ki [6] [nM] | Ki (Endothelin-1 receptor [7]) [nM] |
| --- | --- | --- | --- | --- | --- | --- | --- | --- |
| CCCN(C)C(=O)CN1C[C@@H](c2ccc3c(c2)OCO3)[C@H](C(=O)O)[C@H]1c1ccc(OC)cc1 | 2900 | 4570 | 6.63 | 21.3 | 9.12 |  |  |  |
| CCCCN(C)C(=O)CN1C[C@@H](c2ccc3c(c2)OCO3)[C@H](C(=O)O)[C@H]1c1ccc(OC)cc1 | 1390 | 1080 | 4.71 | 4.88 | 0.97 |  |  |  |
| CCCCN(CCCC)C(=O)CN1CC(c2ccc3c(c2)OCO3)C(C(N)=O)C1c1ccc(OC)cc1 (stereo not given) |  |  | 58 |  |  | Not Active |  |  |
| CCCN(CCC)C(=O)CN1C[C@@H](c2ccc3c(c2)OCO3)[C@H](C(=O)O)[C@H]1c1ccc(OC)cc1 | 598 | 397 |  | 0.55 | 0.24 |  |  |  |
| CCCNC(=O)CN1C[C@@H](c2ccc3c(c2)OCO3)[C@H](C(=O)O)[C@H]1c1ccc(OC)cc1 | 398 | 579 | 17.2 | 45.3 | 24.6 |  |  |  |
| CCCCN(CCC)C(=O)CN1C[C@@H](c2ccc3c(c2)OCO3)[C@H](C(=O)O)[C@H]1c1ccc(OC)cc1 | 40 | 211 | 0.22 | 0.81 | 0.25 |  |  |  |
| Cc1noc(NS(=O)(=O)c2cccc3c(N(C)C)cccc23)c1C [BMS-182874] |  |  |  |  |  |  | > 50000 |  |
| CCCc1cc(C(=O)O)ccc1OC(C(=O)NS(=O)(=O)c1ccc(C(C)C)cc1)c1ccc2c(c1)OCO2 [L-754142] |  |  |  |  |  |  | 5.4 | 0.13 |
| COc1ccc(C2(O)OC(=O)C(c3ccc4c(c3)OCO4)=C2Cc2cc(OC)c(OC)c(OC)c2)cc1 (stereo not given) [PD-156707] |  |  |  |  |  |  | 139 |  |

Reference: ChEMBL document CHEMBL1129506, “2,4-Diarylpyrrolidine-3-carboxylic acids--potent ETA selective endothelin receptor antagonists. 1. Discovery of A-127722” (J Med Chem, 1996)
